Source: patent US8633177B2, “Nitroxyl (HNO) releasing compounds and uses thereof in treating diseases” (The United States of America, as represented by the …, priority 2010, dated 2014)
Where two headings read alike, the source gives them in different places. Each block holds one molecule with its values, some of them ahead of it.

Key:
[1] = Spontaneous decomposition kinetics by UV spectrophotometry in PBS; type: physicochemical
Protocol: (§1) The rate constants of decomposition were measured spectrophotometrically by monitoring the decrease in absorbance of peaks at ˜240-250 nm characteristic of the diazeniumdiolate functionality. The hydrolysis medium consisted of the metal chelator diethylenetriaminepentaacetic acid (DTPA, 50 μM) in calcium- and magnesium-free Dulbecco's phosphate-buffered saline (PBS, pH 7.4). UV-visible spectroscopy was performed with a Hewlett-Packard 8453 diode-array spectrophotometer equipped with Agilent 89090A thermostat set to 37° C. The spectrophotometer was blanked after warming the cuvette containing buffer at the appropriate pH in the instrument heat block for 5 min. For esterase-containing reactions, porcine liver esterase (20 μL; Sigma; suspension in 3.2 M (NH4)2SO4, pH 8) was added to the reaction buffer before blanking. Upon addition of IPA/NO (1) or AcOM-IPA/NO (2) (≦10 μL of stock), the cuvette was capped and inverted to mix. Spectra were collected at 0.5- to 60-s intervals for time periods of 2-120 min or until A∞<0.05. Kinetic analysis was performed by fitting the data to an exponential decay (A=ΔAe^−kt+A∞) using KaleidaGraph v.3.1.
To gain insight into the mechanistic origins of this unexpected finding, the pH/rate profiles of the diazeniumdiolates 1 and 2 were explored. As previously established and shown in FIG. 3A, hydrolysis of 1 slowed as the pH was increased from 3 to 10, with a small increase in rate thereafter. This was the opposite of the results with 2, whose hydrolysis rate was essentially first order in hydroxide ion concentration between pH 5 and 11 (FIG. 3B).

porcine liver esterase = assay: Esterase-catalyzed hydrolysis followed by UV spectrophotometry; type: in vitro ADME; details: pH 7.4
Protocol: FIGS. 4A-C are graphs illustrating spontaneous hydrolysis (FIGS. 4A and 4B) and esterase-catalyzed hydrolysis (FIG. 4C) of 2 in an embodiment of the invention. In FIG. 4A, spectra were collected every 60 s (10-min intervals shown) after dissolving 2 in PBS (pH 7.4) at 37° C., and only loss of the parent compound was observed. In FIG. 4B, the pH was elevated to 12, and scans were collected every 0.5 s (through 2.5 s and 3.5, 5.5, 9.5, and 54.5 shown). In FIG. 4C, porcine liver esterase (20 μL in 3 mL) was added (pH 7.4), and spectra were collected every 10 s. Hydrolysis of 2 (λmax 236 nm) to 1 (λmax 250 nm) was complete within 40 s (0.067 s^−1) under these conditions. […] Elevation of the intensity near 200 nm indicated formation of autoxidation products such as nitrite. Deaeration inhibited this peak (data not shown).
as §1

COX-2 mRNA = assay: COX mRNA levels; type: cell-based; details: Control 1.0
Source text: PGE2 levels are a direct measure of COX-2 activity. […] Increased COX-2 expression in the presence of aspirin has been reported previously (Davies et al., Alimentary Pharm. & Ther. 11(6):1101-08 (1997))). Both DEA/NO and DEA/NO-aspirin seem to augment the effect of aspirin while IPA/NO and IPA/NO-aspirin nullifies the effect and brings it back to the control level (Table 3).

[2] = Hydrolysis at pH 11 followed by NMR; type: physicochemical
Protocol: Organic products of the hydrolysis of 1 and 2 were quantified by integrating their NMR spectra. For pH 7.4, 3.9 mM solutions in 0.1 M phosphate buffer were employed. For pH 11, 4.9 mM solutions of 1 and 2 in 50 mM sodium carbonate were studied. Samples were run on a Varian Inova 400 MHz NMR with a Dell Precision 390 workstation. The samples were run at 37° C. and water suppression was achieved by using the preset pulse sequence. Peaks were identified by comparison with authentic standards.

[3] = NO quantified by chemiluminescence during hydrolysis; type: physicochemical; details: neutral pH
Protocol: In addition to HNO measurements as described above by reductive nitrosylation of metmyoglobin, NO was quantified by chemiluminescence assay, N2O by gas chromatography, and nitrite ion by the Griess assay.
Detection of HNO was also carried out using the chemiluminescence method in, 1 mM ferricyanide solution.

ventricular myocytes = assay: Sarcomere shortening in isolated ventricular myocytes; type: cell-based, C57BL/6 male mice; details: 3 μM
Protocol: A stock solution of 2 in DMSO was freshly prepared prior to each experiment and stored on ice protected from the light. Liberase blendzyme 3 was purchased from Roche Diagnostics (Mannheim) while CaCl2, DMSO, and glucose were purchased from Merck (Darmstadt). Calcium-free perfusion buffer contained 113 mM NaCl, 4.7 mM KCl, 0.6 mM KH2PO4, 0.6 mM Na2HPO4, 1.2 mM MgSO4, 12 mM NaHCO3, 10 mM KHCO3, 30 mM taurine, 5.5 mM glucose, 10 mM 2,3-butanedione monoxime, and 10 mM 4-(2-hydroxyethyl)-1-piperazineethanesulfonic acid (HEPES) at pH 7.4. Digestion buffer contained an additional 0.1 mg/mL of recombinant collagenases/proteases (Liberase blendzyme 3) and 12.5 μM CaCl2. IonOptix solution for the sarcomere shortening measurements contained 135 mM NaCl, 4.7 mM KCl, 0.6 mM KH2PO4, 0.6 mM Na2HPO4, 1.2 mM MgSO4, 1.25 mM CaCl2, 20 mM glucose, and 10 mM HEPES at pH 7.46.
C57BL/6 male mice (13-15 weeks) were used in the present study. Ventricular myocytes were isolated from wild type hearts using a modified protocol of O'Connell et al., (AfCS Research Reports, 1(5): 1-9 (2003)). […] After further centrifugation, ionOptix buffer was added on the pellet and sarcomere shortening was assessed on field stimulation (1 Hz with 4-ms duration, 10 V) using a video-based sarcomere length detection system (IonOptix Corporation) at room temperature.

[4] = tested on: MB-231 breast cancer cell lines
Protocol: (§2) Intracellular NO/HNO release from the derivatized NSAIDs was determined using 4-amino-5-methylamino-2′,7′-difluorofluoroescein diacetate (DAF-FM diacetate) as in Example 9.

[5] = tested on: MB-231 breast cancer cell lines; assay: DAF assay of cell membrane penetration, MB-231; details: MB-231 cell line
Protocol: as §2

[6] = porcine liver esterase 20 μL in 3 mL

rate of decay of 1 ([1]; FIG. 3A, PBS with 50 μM DTPA, 37° C.): 0.0012 s⁻¹
hydrolysis rate relative to 2 ([1]; pH 11, more slowly than 2): 100 fold
rate of decay of 1 (porcine liver esterase; FIG. 4C, esterase present): 0.0033 s⁻¹
hydrolysis at pH 11 ([2]; pH 11): hydrolyzed slowly
species produced on spontaneous hydrolysis [3]: produced both NO and HNO
Structure (SMILES): CC(C)N[N+]([O-])=N[O-].[Na+] [Compound 1, sodium 1-(N-isopropylamino)diazen-1-ium-1,2-diolate, reference compound]
COX-2 mRNA level relative to control (COX-2 mRNA): 1.2

Structure (SMILES): CC(=O)OCO/N=[N+](\[O-])NC(C)C [Compound 2, O^2-(acetoxymethyl)1-(isopropylamino)diazen-1-ium-1,2-diolate]
change in sarcomere shortening relative to baseline, versus 1 (ventricular myocytes): approximately 4 fold
hydrolysis rate relative to 1 ([1]; physiological pH): an order of magnitude slower
rate of hydrolysis of 2 to 1 (porcine liver esterase; [6]): 0.067 s⁻¹
time to complete hydrolysis of 2 to 1 (porcine liver esterase; [6]): ≤ 40 s
time to complete dissociation ([2]; 37° C., pH 11 carbonate buffer): ≤ 5 min
total amount of NO detected on hydrolysis ([3]; NO-specific chemiluminescence detector): less than 1 % of theoretical yield

Structure (SMILES): CCN(CC)[N+]([O-])=N[O-].[Na+] [DEA/NO, O^2-Sodium 1-(N,N-Diethylamino)diazen-1-ium-1,2-diolate, reference compound]
COX-2 mRNA level relative to control (COX-2 mRNA): 6.0

cell membrane penetration [4]: penetrated cell membranes
Structure (SMILES): CCN(CC)[N+]([O-])=NOCOC(=O)Cc1c(C)n(C(=O)c2ccc(Cl)cc2)c2ccc(OC)cc12 [DEA/NO-indomethacin, O^2-(methyl2-(1-(4-chlorobenzoyl)-5-methoxy-2-methyl-1H-indol-3-yl)acetate)-1-(N,N-Diethylamino)-diazen-1-ium-1,2-diolate]

cell membrane penetration [4]: penetrated cell membranes
Structure (SMILES): COc1ccc2c(c1)c(CC(=O)OCON=[N+]([O-])NC(C)C)c(C)n2C(=O)c1ccc(Cl)cc1 [IPA/NO-indomethacin, O^2-(methyl2-(1-(4-chlorobenzoyl)-5-methoxy-2-methyl-1H-indol-3-yl)acetate)-1-(N-isopropylamino)-diazen-1-ium-1,2-diolate]

Structure (SMILES): CC(C)N[N+]([O-])=NOC(=O)c1cccnc1Nc1cccc(C(F)(F)F)c1 [IPA/NO-niflumic acid, O^2-(2-(3-(trifluoromethyl)phenylamino)nicotinate)-1-(N-isopropylamino)-diazen-1-ium-1,2-diolate]
cell membrane penetration [5]: penetrated cell membranes
